Laboratory results taken from patent publication US5695970A, “Glucan lyase producing 1,5-anhydrofructose” (priority 1992, dated 1997).

Experiments:
Format in all cases: biochemical, Gracilariopsis lemaneiformis
[1] = system: α-1,4-glucan lyase; test: Substrate specificity of α-1,4-glucan lyase, long term incubation (24 h), continuation of Table IV; details: for release of 1,5-anhydrofructose and glucose checked by TLC on Silica gel 60: after 24 h of incubation; for Product released: 1.64 μg enzyme, 24 h; for activity of the lyase with the substrate (in words): long term incubation at 30° C.
Description: The incubation time was 24 h.
(§1) The reaction mixture for the assay of α-1,4-glucan lyase was composed of 240 μl 62.5 mM Mops-NaOH containing 6 mg soluble starch (pH 6.2), the enzyme preparation and distilled water to a final volume of 300 μl. The reaction was carried out at 30° C. for 10-30 min. Liberated 1,5-anhydrofructose was determined by monitoring the absorbance at 546 nm after the addition of 3,5-dinitrosalicylic acid reagent. Soluble starch in the reaction mixture may be replaced by other substrates and the final substrate concentration may be varied as indicated in the text. The reaction time and enzyme concentration used in enzyme activity assay have been chosen to ensure the linearity of the reaction rate. One unit of α-1,4-glucan lyase activity is defined as the amount of enzyme which liberates 1μmol of 1,5-anhydrofructose min^-1 under the conditions described above.

[2] = system: α-1,4-glucan lyase; test: Substrate specificity of α-1,4-glucan lyase (release of 1,5-anhydrofructose, DNS method, 15 min); details: for Activity (% of Maltoheptaose): substrate 10 mg ml^-1, incubation 15 min
Description: When amylopectin was used as a substrate, the activity reached maximum 8 mg ml^-1 and then decreased slightly at 20 mg ml^-1. The same results were obtained with soluble starch and maltoheptaose. When maltotriose and maltose were used as substrates, the activity reached maximum at 2 mg ml^-1 and 6 mg ml^-1, respectively. Substrate inhibition became evident at higher concentrations, especially in the case of maltotriose. […] Generally, the inhibition degree decreased with the increase in DP number (Degree of Polymerization). When the activity measured at 10 mg ml^-1 was compared at 2 mg ml^-1 and 4 mg ml^-1, substrate inhibition could be clearly seen among the maltosaccharides of DP 3-5. In maltohexaose, the substrate inhibition was very low and was none in maltoheptaose. Among the maltosaccharides, maltotetraose and maltopentaose were the poorest substrates.
With PNPG1 (p-nitrophenyl-α-D-glucoside), the artificial substrate of α-glucosidase, reaction rate was the lowest.
Substrate Specificity of α-1,4-Glucan lyase.
The concentration of various substrates in the reaction mixture
was 10 mg ml^-1 except PNPG1, PNPG2, PNPG7, which was 2 mM.
The incubation time was 15 min. The degrading rate of maltoheptaose
was 84 μmol min^-1. mg^-1 protein.
as §1

[3] = system: α-1,4-glucan lyase; test: Inhibition studies of α-1,4-glucan lyase activity; details: for inhibition of enzymic activity: 0.1M; for inhibition of the enzyme: 50mM; for inhibitory effect on the enzyme activity: 12 mM
Description: as §1

**Q.** What does the source list for `OC[C@H]1O[C@@H](O[C@H]2[C@H](O)[C@@H](O)C(O)O[C@@H]2CO)[C@H](O)[C@@H](O)[C@@H]1O` (stereo partly drawn) [Cellobiose, cellobiose]?
**A.** release of 1,5-anhydrofructose and glucose checked by TLC on Silica gel 60 [1]: No 1,5-anhydrofructose and glucose were released; Product released ([1]; substrate 4 mg ml^-1): 0 nmol

**Q.** With `OC[C@H]1O[C@H](O[C@H]2[C@H](O)[C@@H](O)[C@@H](O[C@H]3[C@H](O)[C@@H](O)[C@@H](O[C@H]4[C@H](O)[C@@H](O)[C@@H](O[C@H]5[C@H](O)[C@@H](O)[C@@H](O[C@H]6[C@H](O)[C@@H](O)C(O)O[C@@H]6CO)O[C@@H]5CO)O[C@@H]4CO)O[C@@H]3CO)O[C@@H]2CO)[C@H](O)[C@@H](O)[C@@H]1O` (stereo partly drawn) [Maltohexaose, maltohexaose] as the compound, how does the substrate inhibition ([2]; higher substrate concentrations, 10 mg ml^-1 compared with 2 and 4 mg ml^-1) read?
**A.** very low

**Q.** What about the “Activity (% of Maltoheptaose)” value [2] of the same compound?
**A.** 74.6%

**Q.** Which “Activity (% of Maltoheptaose)” value [2] does the source give for amylose here?
**A.** 100.4%

**Q.** `OCC(O)CO` [glycerol] was tested. Which “inhibition of enzymic activity” value ([3]; amylopectin as substrate) did it give?
**A.** no inhibition

**Q.** And the “inhibition of enzymic activity” value ([3]; maltose as substrate)?
**A.** no inhibition

**Q.** For β-limit dextrin, which “Activity (% of Maltoheptaose)” value [2] is on record?
**A.** 22.7%

**Q.** How did the “activity of the lyase with the substrate (in words)” value [1] turn out when `O=[N+]([O-])c1ccc(O[C@H]2O[C@H](CO)[C@@H](O)[C@H](O)[C@@H]2O)cc1` [PNPMan, p-introphenyl-α-D-mannoside] was run?
**A.** no activity

**Q.** What about the Product released ([1]; substrate 2 mM) of the same compound?
**A.** 0 nmol

**Q.** For `[Cl][Hg][Cl]` [HgCl2], which “inhibition of the algal enzyme (in words)” value ([3]; summary statement, no concentration) is on record?
**A.** strongly inhibited

**Q.** For `[Cl-].[K+]` [KCl], which “inhibition of the enzyme” value ([3]; amylopectin as substrate) is on record?
**A.** no inhibition

**Q.** And the “inhibition of the enzyme” value ([3]; maltose as substrate)?
**A.** no inhibition

**Q.** Which “inhibition of enzymic activity” value ([3]; amylopectin as substrate) does the source give for `O[C@H]1[C@H](O)[C@@H](O)[C@H](O)[C@@H](O)[C@H]1O` [inositol] here?
**A.** no inhibition

**Q.** What about the “inhibition of enzymic activity” value ([3]; maltose as substrate) of the same compound?
**A.** no inhibition

**Q.** Which results are given for `OC[C@H]1O[C@@H](O[C@H]2[C@H](O)[C@@H](O)C(O)O[C@@H]2CO)[C@H](O)[C@@H](O)[C@H]1O` (stereo partly drawn) [Lactose, lactose]?
**A.** inhibition of enzymic activity ([3]; amylopectin as substrate): no inhibition; inhibition of enzymic activity ([3]; maltose as substrate): no inhibition; release of 1,5-anhydrofructose and glucose checked by TLC on Silica gel 60 [1]: No 1,5-anhydrofructose and glucose were released; Product released ([1]; substrate 10 mg ml^-1): 0 nmol

**Q.** How did the “inhibition of the enzyme” value ([3]; amylopectin as substrate) turn out when `[Cl-].[Cl-].[Mg+2]` [MgCl2] was run?
**A.** no inhibition

**Q.** What about the “inhibition of the enzyme” value ([3]; maltose as substrate) of the same compound?
**A.** no inhibition

**Q.** With `CO[C@H]1O[C@H](CO)[C@@H](O)[C@H](O)[C@H]1O` [Methyl α-D-glucoside, methyl α-D-glucoside] as the compound, how does the “inhibitory effect on the enzyme activity” value ([3]; maltose as substrate) read?
**A.** no inhibitory effect

**Q.** And the “inhibitory effect on the enzyme activity” value ([3]; soluble starch as substrate)?
**A.** no inhibitory effect

**Q.** And the “release of 1,5-anhydrofructose and glucose checked by TLC on Silica gel 60” value [1]?
**A.** No 1,5-anhydrofructose and glucose were released

**Q.** What about the Product released ([1]; substrate 10 mM) of the same compound?
**A.** 0 nmol

**Q.** For xylose, which “inhibition of enzymic activity” value ([3]; amylopectin as substrate) is on record?
**A.** no inhibition

**Q.** What about the “inhibition of enzymic activity” value ([3]; maltose as substrate) of the same compound?
**A.** no inhibition

**Q.** With `OC[C@H]1O[C@H](OC[C@H]2O[C@H](O[C@H]3[C@H](O)[C@@H](O)C(O)O[C@@H]3CO)[C@H](O)[C@@H](O)[C@@H]2O)[C@H](O)[C@@H](O)[C@@H]1O` (stereo partly drawn) [Panose, panose] as the compound, how does the Product released ([1]; substrate 4 mg ml^-1) read?
**A.** 13465.6 nmol

**Q.** What does the source list for `OC[C@H]1O[C@@](CO)(O[C@H]2O[C@H](CO)[C@@H](O)[C@H](O)[C@H]2O)[C@@H](O)[C@@H]1O` [Sucrose, sucrose]?
**A.** inhibition of enzymic activity ([3]; amylopectin as substrate): no inhibition; inhibition of enzymic activity ([3]; maltose as substrate): no inhibition; release of 1,5-anhydrofructose and glucose checked by TLC on Silica gel 60 [1]: No 1,5-anhydrofructose and glucose were released; Product released ([1]; substrate 10 mg ml^-1): 0 nmol

**Q.** What does the source list for `O=[N+]([O-])c1ccc(O[C@H]2O[C@H](CO)[C@H](O)[C@H](O)[C@H]2O)cc1` [PNPGal, p-nitrophenyl-α-D-galactoside]?
**A.** activity of the lyase with the substrate (in words) [1]: no activity; Product released ([1]; substrate 2 mM): 0 nmol

**Q.** Which results are given for `OC[C@H]1O[C@H](O[C@H]2[C@H](O)[C@@H](CO)OC(O)[C@@H]2O)[C@H](O)[C@@H](O)[C@@H]1O` (stereo partly drawn) [Nigerose, nigerose]?
**A.** activity of the lyase with the substrate (in words) [1]: able to degrade; Product released ([1]; substrate 4 mg ml^-1): 13452.8 nmol
